In patent publication EP3685668B1, “COMPOSITION COMPRISING ACIBENZOLAR-S-METHYL AS EFFECTIVE INGREDIENT FOR CONTROLLING BURSAPHELENCHUS XYLOPHILUS DISEASE AND METHOD FOR CONTROLLING BURSAPHELENCHUS XYLOPHILUS USING SAME” (Industry Foundation of Chonnam National University, priority 2017, dated 2019):

Tests used:
PR_1b family = test: qRT-PCR expression of induced resistance gene in pine tree callus; assay type: cell-based; conditions: concentration series
PR_3 family class 1 = test: as above; assay type: cell-based; conditions: concentration series, 2 µg/mℓ
Antipeptide = test: as above; assay type: cell-based; conditions: concentration series
[1] = test system: Bursaphelenchus xylophilus; test: In vitro nematicidal activity, 96-well microplate; conditions: after 3 days
Procedure: To test the nematicidal activity of acibenzolar-S-methyl, a suspension of Bursaphelenchus xylophilus was diluted in a 96-well microplate to have 50 worms/99 µℓ in each well and used for the treatment. […] Each treatment was repeated 3 times, and "A Pharm" (emamectin benzoate, 2.15%), which is a chemical pesticide, was used as a control group. After the treatment, the 96-well plate was kept in a plastic box having water-soaked wipes spread on the bottom to maintain 100% humidity, and, after covering the box with black cloth, the box was stored in a dark state with blockage of light. The observation was made after 3 days. […] [Table 2] Nematicidal activity of acibenzolar-S-methyl against Bursaphelenchus xylophilus

PR_2 family = test: qRT-PCR expression of induced resistance gene in pine tree callus; assay type: cell-based; conditions: concentration series, 2 µg/mℓ
[2] = test system: Bursaphelenchus xylophilus; test: Control efficacy against pine wilt disease by trunk injection, foliar spraying or soil drenching, greenhouse, red pine trees; assay type: in vivo; conditions: red pine tree, observed for 80 days
Procedure: The control efficacy of acibenzolar-S-methyl, which shown to have the highest activity in Example 1, was determined by three different treatment methods, i.e., trunk injection, foliar spraying, and soil drenching. For in vivo pathogenesis test, 2-year old young red pine trees (diameter of 5.5 mm or so, and height of about 35 mm) were used like Example 2.
For the trunk injection, a borehole was created at an angle of 45° by using an electric drill with thickness of 1.5 mm on a pine stem part that is 5 to 10 cm above the soil surface, a tip (200 µℓ) was inserted to the hole, and the working solution of chemicals was injected in an amount of 100 µℓ per pine tree after dissolving acibenzolar-S-methyl at concentration of 0.2 or 10 mg/mℓ in an aqueous solution containing 10% acetone and 10% methanol. After the treatment, the end part of the tip was sealed with parafilm, and a small hole was created thereon as an airflow hole. For the foliar spraying, a pre-treatment with Tween 20 (250 µg/mℓ) was carried out at 5 mℓ per pine tree to help the adsorption of the chemical on pine leaves, followed by drying for 2 hours. After drying, acibenzolar-S-methyl was dissolved at concentration of 1.6 mg/mℓ in an aqueous solution containing 10% acetone and Tween 20 (250 µg/mℓ) and the dissolved solution was filled in microsprayer and was applied 5 mℓ per pine tree by foliar spraying. For the soil drenching, acibenzolar-S-methyl was dissolved at concentration level of 0.2 mg/mℓ in an aqueous solution containing 10% acetone and Tween 20 (250 µg/mℓ), and this solution was used for soil drenching in a pot with planted pine tree, 40 mℓ per pine tree. […] [Table 3] The control efficacy of acibenzolar-S-methyl against pine wilt disease by various treatment methods

[3] = Foliar spraying, 1,600 µg/mℓ, 5 mℓ per tree
[4] = Soil drenching, 200 µg/mℓ, 40 mℓ per tree

What does the source list for `CSC(=O)c1cccc2nnsc12` [ASM, acibenzolar-S-methyl]?
Gene expression level, PR_1b family (PR_1b family; 2 µg/mℓ): 1.064; Gene expression level, PR_1b family (PR_1b family; 20 µg/mℓ): 1.248; Gene expression level, PR_3 family class 1 (PR_3 family class 1): 3.945; Gene expression level, Antipeptide (Antipeptide; 2 µg/mℓ): 5.816; Gene expression level, Antipeptide (Antipeptide; 20 µg/mℓ): 7.111; Nematicidal rate (%) ([1]; 33.3 µg/mℓ): 1.72%; Nematicidal rate (%) ([1]; 100 µg/mℓ): 1.94%; Nematicidal rate (%) ([1]; 300 µg/mℓ): 2.24%; nematicidal activity ([1]; second stage larvae, 300, 100 or 33.3 µg/mℓ): no nematicidal activity; Gene expression level, PR_2 family (PR_2 family): 1.828; Control value (%) [2, 3]: 61%; Disease occurrence rate (%) [2, 3]: 28%; Control value (%) [2, 4]: 97%; Disease occurrence rate (%) [2, 4]: 2%; Control value (%) ([2]; Trunk injection, 200 µg/mℓ): 77%; Disease occurrence rate (%) ([2]; Trunk injection, 200 µg/mℓ): 16%; Control value (%) ([2]; Trunk injection, 10,000 µg/mℓ): 27%; Disease occurrence rate (%) ([2]; Trunk injection, 10,000 µg/mℓ): 52%
